Data as given in patent US20090247495A1, “CU[…] AND USES THEREOF” (priority 2007, published 2009).
In brackets after ≈: the same amount, converted by molar mass.

How the values were obtained:
[1] = system: Human cancer cell lines from the 59-NCI Cancer Cell Line Panel; format: cell-based
[2] = system: Stat3; experiment: Western blot of Stat3 activation in HepG2, HT29 and MCF-7 cells; format: cell-based, human
[3] = system: colon cancer cell line (HT29); experiment: MTT cell cytotoxicity assay, HT29; format: cell-based, human; conditions: 48 hours
Experimental: (§1) Three human cancer cell lines (HepG2(liver), HT29(colon) and MCF-7(breast)) were purchased from American Type Culture Collection (ATCC, Manassas, Va., USA). The cells were cultured in RPMI 1640 medium supplemented with 5% (v/v) fetal bovine serum (FBS) and 100 units/ml penicillin and streptomycin (Invitrogen Life Technologies) in a humidified 5% CO2 atmosphere at 37° C.
The cytotoxic effect of CuB and CuD on these three cancer cell lines were determined using MTT (3-[4,5-dimethylthiazol-2-yl]-2,5-diphenyl tetrazolium bromide) labeled cell cytotoxicity assay. A total of 1×10^4 cells were seeded into a 96-well plate for 24 hours prior to cucurbitacin B (CuB) or cucurbitacin D (CuD) treatment. They were then treated with different dosages of CuB/CuD for 48 hours. After the treatment, 20 μl of MTT (5 mg/ml) was added to each well and incubated for 4 hrs. Then the medium was discarded and 100 μl of dimethyl sulfoxide was added. The absorbance at 570 nm was then measured by using FLUOstar OPTIMA equipment (BMG, LABTECH GmbH, Germany). The percentage of inhibition against different dosages of CuB/CuD were plotted using the Prism software and the 50% inhibition concentration (IC50) were obtained.

[4] = system: melanoma; experiment: SRB growth inhibition, melanoma lines of the NCI panel; format: cell-based, human; conditions: 48 hours
From the text: Human cancer cell lines from the 59-NCI Cancer Cell Line Panel including leukemia, melanoma and cancers of breast, brain, colon, lung, ovary, prostate and kidney, were purchased from the National Institute of Cancer (USA). The growth inhibition (GI50) of these cell lines treated with cucurbitacin B and cucurbitacin D in various concentrations was investigated.
59 human cancer cell lines were maintained in RPMI 1640 (Invitrogen Life Technologies, CA, USA) supplemented with 5% Fetal Bovine Serum, 2 mM L-glutamine and 1% Penicillin/Streptomycin (Invitrogen Life Technologies) at 37° C. with 5% CO2. All chemicals were purchased from Sigma (St. Louis, Mo., USA) unless specified otherwise.
Sulforhodamine B (SRB) assay was applied to determine the cytostatic effect of cucurbitacin B and cucurbitacin D. SRB is a dye that binds to cellular proteins and will be dissolved in base. The biomass of total protein can be measured at 520 nm using a plate reader.
Cells were inoculated into 96-well microtiter plates including “Time zero” (Tz) plates in 100 μl at cell concentrations from 5000 to 40,000 cells per well according to NCI guideline. The cells were incubated at 37° C. with 5% CO2 for 24 hours. […] Bound SRB was solubilized with 100-200 ul per well of 10 mM trizma base and absorbance was measured at a wavelength of 520 nm. The percentage of growth inhibition was calculated as follows: […]

[5] = system: hsp27; experiment: Western blot of hsp27 in HepG2, HT29 and MCF-7 cells; format: cell-based, human
Experimental: (§2) The human cancer cells line were serum starved for 18 hours prior to CuB/CuD treatment. Cells were incubated in a 6-well plate filled with 5 ml growth medium (RPMI with 0.2% FBS and 1% PS) at the cell density of 1×10^5 cells/ml, in the presence or absence of two different dosages of CuB/CuD for various time intervals. The drug treatment was terminated by centrifugation at 1,500 rpm for 5 minutes and the cells were rinsed twice with phosphate-buffered saline and lysed at 4° C. in a lysis buffer containing 50 mM Tris-HCl, pH7.5, 100 mM NaCl, 5 mM EDTA, 40 mM NaP2O7, 1% Triton X-100, 1 mM dithiothreitol, 200 μM Na3VO4, 100 uM phenylmethysufonyl fluoride, 2 μg/ml leupeptin, 4 μg/ml aprotinin and 0.7 μg/ml pepstatin. The insoluble protein lysate were removed by centrifugation for 10 minutes at 13,000 rpm. Fifteen micrograms of protein lysate was resolved using 10% SDS-polyacryamide gel electrophoresis (PAGE) and then subjected to western blot anaylsis. Western blots were performed with anti-Stat3, anti-Erk1/2 and anti-hsp27 antibodies specific for phosphor- and total Stat3, Erk and hsp27 proteins. The protein bands were then visualized with the Enhanced Chemiluminescence Plus (ECL Plus) detection system (Amersham). • 6.2.8.1 Inhibition Effect Cucurbitacin B/Cucurbitacin D on Stat3 Activation in HepG2 and HT29 Cells
(§3) Cells were incubated either with CuB or CuD (25 ug/ml or the dosage of IC50) for various time intervals (5, 10 or 30 mins, 1 or 4 hours). The Stat3 activation was detected by western blot.

[6] = system: MAPK signaling pathway; experiment: Western blot of MAPK / cell cycle signaling proteins in HL60 cells; format: cell-based, human
Experimental: (§4) Control cells, as well as cells treated with cucurbitacin B or cucurbitacin D, were harvested and collected by centrifugation. Whole cell extracts were then prepared by lysing the cells using 4% sodium dodecyl sulfate (SDS) gel sample buffer. Cell extracts were boiled for 10 min and chilled on ice, subjected to 12% SDS-polyacrylamide gel electrophoresis, and transferred to a PVDF membrane. Each membrane was cut into to two pieces with one piece incubated at 4° C. overnight with antibodies against cell cycle signaling proteins, such as ERK, phosphorlated-ERK, p38, phosphorlated-p38, Cyclin E, Retinoblastoma, phosphalated-Retinoblastoma and c-myc, and apoptotic protein (PARP). β-actin was used as a control for protein loading. All antibodies were obtained from Cell signaling Technologies (USA). Then membranes were incubated at 37° C. for 1 h with secondary antibody conjugated with peroxidase, and the signal was detected using chemiluminescence detection reagent. The relative protein level was calculated as the ratio of the optical density of the protein of interest to that of β-actin.

[7] = system: PARP; experiment: Western blot of PARP cleavage in HL60 cells; format: cell-based, human
Experimental: as §4

[8] = system: Human cancer cell lines from the 59-NCI Cancer Cell Line Panel; experiment: Apoptosis (Annexin V-FITC / PI) by flow cytometry, 18 selected NCI panel cell lines; format: cell-based; conditions: 48 hours; GI50, ½ GI50 and ¼ GI50
Experimental: Apoptosis is the important mechanism for cell death in normal cells. In cancer cells, this mechanism fails and cells proliferate without control. Human cancer cell lines from the 59-NCI Cancer Cell Line Panel including leukemia, melanoma and cancers of breast, brain, colon, lung, ovary, prostate and kidney were purchased from the National Institute of Cancer. […] They were treated with cucurbitacin B and cucurbitacin D at three different concentrations to elucidate their ability to induce any changes in cell cycle.
Cancer cell lines were maintained in RPMI 1640 supplemented with 5% Fetal Bovine Serum, 2 mM L-glutamine and 1% Penicillin/Streptomycin at 37° C. with 5% CO2. Cells were inoculated into tissue culture flask at cell concentrations from 50000 to 400,000 cells/ml according to the NCI guideline. The cells were incubated at 37° C. with 5% CO2 for 24 hours. Cucurbitacin B and cucurbitacin D were added to the cells of final concentrations ranging from 6 to 350 nM (GI50, ½ GI50 and ¼ GI50 of particular cell line) for 48 hours at 37° C. with 5% CO2. Cells (3×10^5) were then harvested and stained with 5 μl Annexin V-FITC and 10 μl propidium iodine (Becton Dickinson, CA, USA) for 15 minutes at room temperature. Ten thousands events were collected by the FACScaliber and the percentage of different cell populations were analyzed by the CellQuest™ software (Becton Dickinson).

[9] = system: Erk1/2; experiment: Western blot of Erk1/2 in HepG2, HT29 and MCF-7 cells; format: cell-based, human
Experimental: as §2, §3

[10] = system: Human liver cancer cell lines HepG2; experiment: MTT cytotoxicity assay, matrix combination of CuB and Sb on liver cancer cells; format: cell-based; conditions: HepG2, 2 days, CuB 0 μM
Experimental: as §1, with “Human liver” for “Three human”, “HepG2 was” for “(HepG2(liver), HT29(colon) and MCF-7(breast)) were”
A total of 1×10^4 cells were seeded into a 96-well plate for 24 hours prior to drug treatment. They were then treated with different dosages (a multiple of 20-fold of IC50 values) of CuB or Sb for 48 hours. After the treatment, 20 μl of MTT (5 mg/ml) was added to each well and incubated for 4 hrs. Then the medium was discarded and 100 μl of dimethyl sulfoxide was added. The absorbance at 570 nm was then measured by using FLUOstar OPTIMA equipment (BMG, LABTECH GmbH, Germany). The percentage of inhibition against different dosages of CuB or Sb were plotted using the Prism software and the 50% inhibition concentration (IC50) were obtained.
The cells were then treated for 2 days and the % inhibition of growth is determined.
The excess over Bliss additivism may be calculated using the following formula and shown in Table 4: • Bliss Additivism: Combined response=CuB+Sb−(CuB)(Sb) where each effect is expressed as fractional inhibition between 0 and 1 • Excess over additivism=observed response−combined response

What does the source list for CC(C)(O)/C=C/C(=O)[C@](C)(O)[C@H]1[C@H](O)C[C@@]2(C)[C@@H]3CC=C4[C@@H](C[C@H](O)C(=O)C4(C)C)[C@]3(C)C(=O)C[C@]12C [cucurbitacin D]?
cell lines with G2/M arrest [1]: 9 out of 18; cell cycle effect ([1]; SF-295, 48 hours): G2/M arrest and endoreduplication; Stat3 activation ([2]; HepG2 cells and HT29 cells, 25 ug/ml, 30 minutes): inhibited significantly; Stat3 activation ([2]; MCF-7 cells): no significant change; IC50 [3]: 0.27 µg/mL (≈ 0.523 µM); GI50 [4]: 60 nM; Hsp27 activation ([5]; HT29, 10 minutes): significant up-regulation; Hsp27 activation ([5]; HepG2, 30 minutes): significant up-regulation; Hsp27 activation ([5]; MCF-7, 4 hours): significant up-regulation; regulation of ERK, cyclin E, retinoblastoma phosphorylation and c-myc [6]: ERK activation, followed by cyclin E down-regulation, inhibition of retinoblastoma's phosphorylation, and ultimately down-regulation of c-myc; apoptosis marker PARP [7]: cleavage of PARP; cell lines in which apoptosis was induced [8]: 11 out of 18; expression of Erk1/2 ([9]; HT29, 5 minutes of treatment): up-regulated the expression of Erk1/2 significantly; expression of Erk1/2 ([9]; HepG2, 30 minutes of treatment): up-regulated the expression of Erk1/2 significantly; Erk activation ([9]; MCF-7 cells, 5 minutes): significant Erk activation

How did the “% inhibition” value ([10]; Sb 0.1 μM) turn out when CNC(=O)c1cc(Oc2ccc(NC(=O)Nc3ccc(Cl)c(C(F)(F)F)c3)cc2)ccn1 [sorafenib, reference compound] was run?
Its value is 4.61%.

And the “Excess over Highest Single Agent Model” value ([10]; Sb 0.1 μM)?
Its value is 0.

And the “% inhibition” value ([10]; Sb 0.3 μM)?
The value was 27.69%.

What about the “Excess over Highest Single Agent Model” value ([10]; Sb 0.3 μM) of the same compound?
The value was 0.

And the “% inhibition” value ([10]; Sb 0.9 μM)?
The value was 39.10%.

And the “Excess over Highest Single Agent Model” value ([10]; Sb 0.9 μM)?
Its value is 0.

What about the “% inhibition” value ([10]; Sb 2.7 μM) of the same compound?
Its value is 35.35%.

And the “Excess over Highest Single Agent Model” value ([10]; Sb 2.7 μM)?
The value was 0.

What about the “% inhibition” value ([10]; Sb 8.4 μM) of the same compound?
The value was 82.28%.

What about the “Excess over Highest Single Agent Model” value ([10]; Sb 8.4 μM) of the same compound?
The value was 0.
